According to US20190275167A1, “GLASS FORMULATIONS AND USES THEREOF” (priority 2018, published 2019):

Tests used:
[1] = Drug release from heat-molded pellets/articles in release buffer (PBS, 1% FBS in PBS or 100% FBS) at 37° C., HPLC quantification; type: physicochemical; conditions: for Drug release from heat molded pellets: pellets 1 mm×1 mm
Method: Samples were incubated at 37° C. on a shaker rotating at 115 rpm. After 1 day, 3 days, 7 days, and subsequently in alternating 3 and 4 day intervals (i.e., 1, 3, 7, 10, 14 days etc.), release buffer was sampled directly (PBS) or syringe filtered, proteins were precipitated with acetonitrile, and drug release products were extracted. The samples were analyzed by high performance liquid chromatography (HPLC) to quantify drug products.

[2] = Ethylene oxide (ETO) gas sterilization of heat-molded pellets, purity by HPLC and drug release pre- and post-ETO; type: physicochemical; conditions: ETO gas at 55° C.
[3] = system: joint of a subject suffering from inflammation, e.g., arthritis; assay: Microparticles and nanoparticles injected into the joint of a subject suffering from inflammation; type: in vivo
Text: Microparticles and nanoparticles are formed from Compound 1 according to the methods described in above. […] Local inflammation in the joint of the subject is reduced. Similarly, the other compounds of the disclosure can likewise be used to form micro- and nanoparticles and injected into the joint of a subject for the purposes of treating, e.g., inflammation, and the drug is released at a steady rate over several months (e.g., three months).

Drug release from heat molded pellets ([1]; 100% FBS, 37° C.) | Drug release from heat molded pellets ([1]; PBS, 37° C.) | Speed of drug release compared to other drug dimers with triethylene glycol linker ([1]; 100% FBS) | Compound | also measured
 |  |  | C[C@@H]1C[C@H]2[C@@H]3CCC4=CC(=O)C=C[C@]4(C)[C@@]3(F)[C@@H](O)C[C@]2(C)[C@@]1(O)C(=O)COC(=O)OCCOCCOCCOC(=O)OCC(=O)[C@@]1(O)[C@H](C)C[C@H]2[C@@H]3CCC4=CC(=O)C=C[C@]4(C)[C@@]3(F)[C@@H](O)C[C@@]21C [Compound 1, Dexamethasone-Triethylene Glycol-Dexamethasone] | Mechanism of drug release from pellets (representative images over time) ([1]; 100% FBS, 37° C.): surface erosion; Dexamethasone release profile from articles ([1]; over the course of 12 weeks or more, FIGS. 1E, 12E, 15C, 17D): generally linear; Change in pellet purity due to ETO sterilization (HPLC) ([2]; pre- vs post-sterilization): no changes; Change in release properties due to ETO sterilization ([2]; release in 1% FBS in PBS or 100% FBS): no changes; Local inflammation in the joint of the subject [3]: reduced; Release of drug into the subject from injected micro- and nanoparticles [3]: steady rate over three months; Shape of pellets during surface erosion (FIG. 1F (100% FBS)): maintaining their shape; Physical form (shape) changes of articles (physiologically relevant conditions): do not
no drug was released | no drug was released |  | Ethinylestradiol-Triethylene Glycol-Ethinylestradiol [Compound 16] | 
 |  | release very quickly | Fusidic Acid-Triethylene Glycol-Fusidic Acid (carbonate ester) [Compound 9] | 
no drug was released | no drug was released |  | Fusidic Acid-Triethylene Glycol-Fusidic Acid (ester) [Compound 15] | 
 |  | release very quickly | Hydrocortisone-Triethylene Glycol-Hydrocortisone [Compound 2] | 

Compound | Drug release from heat molded pellets ([1]; 100% FBS, 37° C.) | Drug release from heat molded pellets ([1]; PBS, 37° C.) | Speed of drug release compared to other drug dimers with triethylene glycol linker ([1]; 100% FBS) | also measured
Cholesterol-Triethylene Glycol-Cholesterol [Compound 14] | no drug was released | no drug was released |  | 
